The test addresses T1, human mAChR M4 (Homo sapiens, UniProt P08173).
T1 construct: expressed in transfected cells; host or cells: CHO-K1 (American Type Culture Collection), stably expressing hM4 and Gqi5
T1 sequence (P08173 1-479): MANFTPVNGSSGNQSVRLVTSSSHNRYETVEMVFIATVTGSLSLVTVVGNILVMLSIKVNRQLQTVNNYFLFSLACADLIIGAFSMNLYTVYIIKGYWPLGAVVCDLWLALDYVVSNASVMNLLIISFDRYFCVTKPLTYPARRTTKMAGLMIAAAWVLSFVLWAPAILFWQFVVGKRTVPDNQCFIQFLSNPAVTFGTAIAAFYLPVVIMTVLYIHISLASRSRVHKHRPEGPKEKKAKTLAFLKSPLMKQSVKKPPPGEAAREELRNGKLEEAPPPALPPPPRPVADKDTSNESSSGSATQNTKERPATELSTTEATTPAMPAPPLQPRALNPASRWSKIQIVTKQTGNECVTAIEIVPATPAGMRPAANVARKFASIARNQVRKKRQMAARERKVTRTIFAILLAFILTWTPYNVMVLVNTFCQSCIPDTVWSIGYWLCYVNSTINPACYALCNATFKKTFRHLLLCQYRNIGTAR
The experiment in a line: mAChR M4 cell-based functional assay: calcium mobilization (Fluo-4, FDSS), potentiation of EC20 acetylcholine response in hM4-Gqi5 CHO-K1 cells. As to conditions: human M4; for Emax at 30 µM: CHO-K1, % ACh maximum at 30 μM; for EC50: potentiation of EC20 acetylcholine response, calcium mobilization. The procedure, abridged: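 Readout is the fluorescence-ratio rise at 1 Hz on FDSS, with PAM activity taken as concentration-dependent enhancement of the EC20 acetylcholine response, fitted four-parameter for EC50/Emax. hM4-Gqi5 CHO-K1 cells carried Fluo-4 AM dye; test compounds (11 points, 1:3) preceded EC20 acetylcholine additions at 144 s and 230 s.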

Usually Emax stands for the size of the effect at its maximum, as opposed to the concentration needed. What is called EC50 is the midpoint of the concentration-response curve. As for `COCc1cc(=O)n2nc(N3CCc4ncc(-c5cnn(C6CC6)c5)cc4C3)c(C)cc2n1` [Compound 1-364, 7-(3-(1-cyclopropyl-1H-pyrazol-4-yl)-7,8-dihydro-1,6-naphthyridin-6(5H)-yl)-2-(methoxymethyl)-8-methyl-4H-pyrimido[1,2-b]pyridazin-4-one], the Emax at 30 µM worked out at 68% and the EC50 stood at 0.298 µM.
With `Cc1ccc(-c2cnc3c(c2)CN(c2nn4c(=O)c(C)cnc4cc2C)CC3)cn1` [Compound 1-86, 3,8-dimethyl-7-(3-(6-methylpyridin-3-yl)-7,8-dihydro-1,6-naphthyridin-6(5H)-yl)-4H-pyrimido[1,2-b]pyridazin-4-one], the Emax at 30 µM turned out to be 94% and the EC50 stood at 0.243 µM.
For `Cc1cc2nc(C(F)(F)F)cc(=O)n2nc1N1CCc2ncc(Nc3ccncc3F)cc2C1` [Compound 2-160, 7-(3-((3-fluoropyridin-4-yl)amino)-7,8-dihydro-1,6-naphthyridin-6(5H)-yl)-8-methyl-2-(trifluoromethyl)-4H-pyrimido[1,2-b]pyridazin-4-one], the Emax at 30 µM was determined as 92% and the EC50 is 0.008 µM.
For `Cc1ncc(-c2cnc3c(c2)CN(c2nn4c(=O)ccnc4cc2C)CC3)s1` [Compound 1-5, 8-methyl-7-(3-(2-methylthiazol-5-yl)-7,8-dihydro-1,6-naphthyridin-6(5H)-yl)-4H-pyrimido[1,2-b]pyridazin-4-one] the same measures were 86% and 0.422 µM.
As to `Cc1cc2nccc(=O)n2nc1N1CCc2ncc(Nc3ccc(F)cc3)cc2C1` [Compound 2-63, 7-(3-((4-fluorophenyl)amino)-7,8-dihydro-1,6-naphthyridin-6(5H)-yl)-8-methyl-4H-pyrimido[1,2-b]pyridazin-4-one], the Emax at 30 µM is 91% and the EC50 is 0.079 µM.
For `Cc1c(N2CCc3ncc(-c4cncc(C(F)(F)F)c4)cc3C2)nn2c(=O)ccnc2c1C` [Compound 1-102, 8,9-dimethyl-7-(3-(5-(trifluoromethyl)pyridin-3-yl)-7,8-dihydro-1,6-naphthyridin-6(5H)-yl)-4H-pyrimido[1,2-b]pyridazin-4-one], the Emax at 30 µM was 83% and the EC50 is 0.733 µM.
For `Cc1cc2nccc(=O)n2nc1N1CCc2ncc(Nc3ccnn3C)cc2C1` [Compound 2-8, 8-methyl-7-(3-((1-methyl-1H-pyrazol-5-yl)amino)-7,8-dihydro-1,6-naphthyridin-6(5H)-yl)-4H-pyrimido[1,2-b]pyridazin-4-one] the same measures were 84% and 0.384 µM.
For `Cc1cc2nccc(=O)n2nc1N1CCc2ncc(-c3cnn4c3COCC4)cc2C1` [Compound 1-325, 7-(3-(6,7-dihydro-4H-pyrazolo[5,1-c][1,4]oxazin-3-yl)-7,8-dihydro-1,6-naphthyridin-6(5H)-yl)-8-methyl-4H-pyrimido[1,2-b]pyridazin-4-one], the Emax at 30 µM came out at 68% and the EC50 came out at 0.921 µM.
`Cc1cc(=O)n2nc(N3CCc4ncc(C(F)(F)F)cc4C3)c(C)cc2n1` [Compound 1-16, 2,8-dimethyl-7-(3-(trifluoromethyl)-7,8-dihydro-1,6-naphthyridin-6(5H)-yl)-4H-pyrimido[1,2-b]pyridazin-4-one]: the Emax at 30 µM was 71% and the EC50 turned out to be 0.34 µM.
Regarding `Cc1cc(=O)n2nc(N3CCc4ncc(-c5cccnc5)cc4C3)c(C)c(C)c2n1` [Compound 1-129, 2,8,9-trimethyl-7-(3-(pyridin-3-yl)-7,8-dihydro-1,6-naphthyridin-6(5H)-yl)-4H-pyrimido[1,2-b]pyridazin-4-one], the Emax at 30 µM was found to be 91% and the EC50 worked out at 1.62 µM.
As for `Cc1cscc1-c1cnc2c(c1)CN(c1nn3c(=O)ccnc3cc1C)CC2` [Compound 1-394, 8-methyl-7-(3-(4-methylthiophen-3-yl)-7,8-dihydro-1,6-naphthyridin-6(5H)-yl)-4H-pyrimido[1,2-b]pyridazin-4-one], the Emax at 30 µM was determined as 86% and the EC50 came to 0.074 µM.
In the case of `Cc1cc2nccc(=O)n2nc1N1CCc2ncc(NCc3cncn3C)cc2C1` [Compound 2-131, 8-methyl-7-(3-(((1-methyl-1H-imidazol-5-yl)methyl)amino)-7,8-dihydro-1,6-naphthyridin-6(5H)-yl)-4H-pyrimido[1,2-b]pyridazin-4-one], the maximal response (Emax) at 30 µM stood at 73% and the EC50 is 2.79 µM.
Regarding `Cc1cc2nccc(=O)n2nc1N1CCc2ncc(-c3cccc4[nH]cc(C)c34)cc2C1` [Compound 1-435, 8-methyl-7-(3-(3-methyl-1H-indol-4-yl)-7,8-dihydro-1,6-naphthyridin-6(5H)-yl)-4H-pyrimido[1,2-b]pyridazin-4-one], the Emax at 30 µM stood at 51% and the EC50 amounted to 1.98 µM.
On to `Cc1ccc(-c2cnc3c(c2)CN(c2nn4c(=O)cc(C)nc4c(C)c2C)CC3)cc1` [Compound 1-135, 2,8,9-trimethyl-7-(3-(p-tolyl)-7,8-dihydro-1,6-naphthyridin-6(5H)-yl)-4H-pyrimido[1,2-b]pyridazin-4-one], for which the Emax at 30 µM worked out at 97% and the EC50 turned out to be 0.626 µM.
As to `Cc1cc(=O)n2nc(N3CCc4ncc(-n5cccn5)cc4C3)c(C)cc2n1` [Compound 2-22, 7-(3-(1H-pyrazol-1-yl)-7,8-dihydro-1,6-naphthyridin-6(5H)-yl)-2,8-dimethyl-4H-pyrimido[1,2-b]pyridazin-4-one], the Emax at 30 µM came to 56% and the EC50 worked out at 0.097 µM.
On to `COCc1cc(=O)n2nc(N3CCc4ncc(-c5ccc(CO)s5)cc4C3)c(C)cc2n1` [Compound 1-369, 7-(3-(5-(hydroxymethyl)thiophen-2-yl)-7,8-dihydro-1,6-naphthyridin-6(5H)-yl)-2-(methoxymethyl)-8-methyl-4H-pyrimido[1,2-b] pyridazin-4-one], for which the Emax at 30 µM came out at 99% and the EC50 amounted to 0.046 µM.
Take `CCn1cc(-c2cnc3c(c2)CN(c2nn4c(=O)cc(C(F)F)nc4c(C)c2C)CC3)cn1` [Compound 1-166, 2-(difluoromethyl)-7-(3-(1-ethyl-1H-pyrazol-4-yl)-7,8-dihydro-1,6-naphthyridin-6(5H)-yl)-8,9-dimethyl-4H-pyrimido[1,2-b]pyridazin-4-one]: the Emax at 30 µM was determined as 86% and the EC50 came to 0.283 µM.
Regarding `Cc1c(N2CCc3ncc(-c4cnn(C5CCCCO5)c4)cc3C2)nn2c(=O)ccnc2c1C` (centres unmarked) [Compound 1-150, 8,9-dimethyl-7-(3-(1-(tetrahydro-2H-pyran-2-yl)-1H-pyrazol-4-yl)-7,8-dihydro-1,6-naphthyridin-6(5H)-yl)-4H-pyrimido[1,2-b]pyridazin-4-one], the Emax at 30 µM was determined as 74% and the EC50 amounted to 0.511 µM.
For `COc1ccc(-c2cnc3c(c2)CN(c2nn4c(=O)ccnc4cc2C)CC3)c(C)n1` [Compound 1-426, 7-(3-(6-methoxy-2-methylpyridin-3-yl)-7,8-dihydro-1,6-naphthyridin-6(5H)-yl)-8-methyl-4H-pyrimido[1,2-b]pyridazin-4-one], the Emax at 30 µM came out at 84% and the EC50 worked out at 0.348 µM.
Regarding `Cc1cc(=O)n2nc(N3CCc4ncc(-c5cnn(-c6ccccc6F)c5)cc4C3)c(C)c(C)c2n1` [Compound 1-180, 7-(3-(1-(2-fluorophenyl)-1H-pyrazol-4-yl)-7,8-dihydro-1,6-naphthyridin-6(5H)-yl)-2,8,9-trimethyl-4H-pyrimido[1,2-b]pyridazin-4-one], the Emax at 30 µM stood at 63% and the half-maximal effective concentration (EC50) was found to be 2.47 µM.
For `Cc1cc(F)cnc1-c1cnc2c(c1)CN(c1nn3c(=O)ccnc3cc1C)CC2` [Compound 1-350, 7-(3-(5-fluoro-3-methylpyridin-2-yl)-7,8-dihydro-1,6-naphthyridin-6(5H)-yl)-8-methyl-4H-pyrimido[1,2-b]pyridazin-4-one], the Emax at 30 µM was found to be 72% and the EC50 was determined as 3.45 µM.
Consider `Cc1cc(=O)n2nc(N3CCc4ncc(-c5ccccc5C)cc4C3)c(C)cc2n1` [Compound 1-237, 2,8-dimethyl-7-(3-(o-tolyl)-7,8-dihydro-1,6-naphthyridin-6(5H)-yl)-4H-pyrimido[1,2-b] pyridazin-4-one], for which the Emax at 30 µM came out at 100% and the EC50 was determined as 0.365 µM.
In the case of `Cc1cc(-c2cnc3c(c2)CN(c2nn4c(=O)cc(C)nc4cc2C)CC3)ccn1` [Compound 1-239, 2,8-dimethyl-7-(3-(2-methylpyridin-4-yl)-7,8-dihydro-1,6-naphthyridin-6(5H)-yl)-4H-pyrimido[1,2-b] pyridazin-4-one], the Emax at 30 µM is 78% and the EC50 turned out to be 0.098 µM.
As for `Cc1cc(=O)n2nc(N3CCc4ncc(-c5ccccc5C(C)C)cc4C3)c(C)cc2n1` [Compound 1-230, 7-(3-(2-isopropylphenyl)-7,8-dihydro-1,6-naphthyridin-6(5H)-yl)-2,8-dimethyl-4H-pyrimido[1,2-b]pyridazin-4-one], the Emax at 30 µM was 43% and the concentration giving a half-maximal response (EC50) came out at 1.3 µM.
For `Cc1c(N2CCc3ncc(N4CCCS4(=O)=O)cc3C2)nn2c(=O)ccnc2c1C` [Compound 2-146, 7-(3-(1,1-dioxidoisothiazolidin-2-yl)-7,8-dihydro-1,6-naphthyridin-6(5H)-yl)-8,9-dimethyl-4H-pyrimido[1,2-b]pyridazin-4-one] the same measures were 78% and 1.48 µM.
